Like-named read-outs stand apart in the source and are kept apart here.
Tests used:
[1] = tested on: spontaneous hypertensive rats (SHR); test: Antihypertensive effect in spontaneous hypertensive rats (SHR); type: in vivo; conditions: for change in vivo at 5 mg/kg / ED10: Rattus norvegicus, ip; for change in vivo at 5 mg/kg: 1 h; for peripheral or central action: in words
Method: Antihypertensive effect in spontaneous hypertensive rats (SHR)
The femoral artery of male SHR is cannulated in anaestesia for blood pressure recordings. After a stabilization period of 11/2 h after discontinuation of the anaesthesia initial blood pressure curves are recorded and the systolic (SAP)/diastolic (DAP) pressure determined (-20, -10, 0, min. p.i.) Test substance is injected i.p. and the pressure curve recorded for one hour. The change in SAP/DAP is calculated in percent at mean initial values at different times (10, 20, 30, 40, 50 and 60 minutes after injection). At least two SHR are used per dose level. The maximum change is used for estimation of the drug effect.

5-HT2 receptors = target: T1, 5-HT2 receptors (Rattus norvegicus, UniProt P14842); test: 3H-spiroperidol binding to 5-HT2 receptors; conditions: rat whole cortex, 0.5 nM 3H-spiroperidol, 0.3 μM sulpiride; read-out: 3H-SPI binding 5-HT2 IC50
T1 construct: Rat whole cortex was homogenized by an Ultra Turrax homogenizer; from tissue; host or cells: rat whole cerebral cortex, crude washed membranes
T1 sequence (P14842 whole entry): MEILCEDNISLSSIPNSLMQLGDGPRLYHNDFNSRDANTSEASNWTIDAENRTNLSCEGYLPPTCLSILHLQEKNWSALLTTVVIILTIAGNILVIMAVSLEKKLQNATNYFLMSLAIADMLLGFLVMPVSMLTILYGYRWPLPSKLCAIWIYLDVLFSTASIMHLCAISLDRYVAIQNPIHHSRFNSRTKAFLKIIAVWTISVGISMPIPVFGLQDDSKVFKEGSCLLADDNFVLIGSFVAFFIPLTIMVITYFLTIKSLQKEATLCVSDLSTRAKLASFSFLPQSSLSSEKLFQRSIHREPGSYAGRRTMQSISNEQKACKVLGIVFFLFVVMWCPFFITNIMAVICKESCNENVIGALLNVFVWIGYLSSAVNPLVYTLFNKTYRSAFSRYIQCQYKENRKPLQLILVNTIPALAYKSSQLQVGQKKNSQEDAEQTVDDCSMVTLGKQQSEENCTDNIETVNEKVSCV
Method: ^3 H-spiroperidol binding to 5-HT2 receptors.
Rat whole cortex was homogenized by an Ultra Turrax homogenizer in 100 vol. of 50 mM Tris buffer pH 7.7. The homogenate was centrifuged at 20,000 g for 10 minutes at 4° C. The pellet was rehomogenized in another volume of buffer and centrifuged as mentioned above. The final pellet was rehomogenized in 50 mM Tris buffer pH 7.7 containing 120 mM NaCl, 5 mM KCl, 2 mM CaCl2 and 1 mM MgCl2 (ion mix) in a volume corresponding to 12.5 mg original tissue per ml.
Test drugs were dissolved in water; ^3 H-spiroperidol (NEN, 28-30 Ci/mmol) was diluted in 3 μM sulpiride, and 800 μl membrane suspension were added. Final concentration of ligand and sulpiride were 0.5 nM and 0.3 μM, respectively. The samples were incubated at 37° C. for 10 min. The samples were then filtered under vacuum through Whatman GF/B glass-fiber filters. The tubes were then rinsed with 5 ml incubation buffer, which was poured on the filters. The filters were finally washed twice with 5 ml buffer and placed in counting vials. After addition of 5 ml scintillation fluid (Lumagel) radioactivity was estimated by liquid scintillation counting. Non-specific binding was obtained by adding Mianserin (1 μM) to separate samples. Each drug was tested at least twice at 5 concentrations in triplicate. IC50-values were determined from log concentration-response curves.--The presence of sulpiride excluded binding to dopamine D-2 receptors.

[2] = tested on: phenylephrine pressor responses; test: Antagonism to phenylephrine pressor responses in pithed rats; type: in vivo; conditions: for ED50 / change in vivo at […]: Rattus norvegicus, iv; for ED50: read-out: Effects on pressor response of Phenylephrine, ED50; for Phenylephr. antg./5-HT antg. (ratio): ratio of phenylephrine ED50 to 5-HT ED50; for change in vivo at […]: read-out: Effects on pressor response of Phenylephrine, % eff. of […], pithed rats, […], jugular vein, read-out: Effects on pressor response of Phenylephrine, % eff. of 0.31 mg/kg
Method: (§1) The rat is anaesthetized with ether, tracheotomized, artificial respired and pithed. The knitting-needle is introduced through the right orbita into the cranial cavity and passed through foramen magnum into the spinal canal as far as possible. The spinal cord is destroyed by turning the needle. After vagotomi both carotides are ligated and a catheter placed in the right one for pressure recording. The rat is adrenalectomized. […] The initial and post medication mean pressor effect is calculated, and the mean pressor effect is calculated as % of the initial value. Two to five preparations are employed for each dose level. The ED50 is determined.

5-HT pressor responses = test: Antagonism to 5-HT pressor responses in pithed rats; type: in vivo; conditions: for change in vivo at 0.02 mg/kg / ED50: Rattus norvegicus, iv; for ED50: read-out: Effects on pressor response of 5-HT, ED50, pithed rats, jugular vein
Method: as §1

[3] = tested on: 1-5-HTP-induced head shakes; test: 1-5-HTP-induced head shakes; type: in vivo; conditions: rats, 1-5-HTP 75 mg/kg i.p. after citalopram; for ED50: Rattus norvegicus, sc, read-out: 1-5-HTP-antg. ED50; for 1-5-HTP-antg. ED50: s.c.
Method: The rats were pretreated subcutaneously with test compound or saline simultaneously with or 90 min before injection of citalopram (10 mg/kg s.c.).
(§2) Each group consisted of 4-12 rats.

[4] = tested on: methylphenidate induced stereotypies; test: Methylphenidate Antagonism; type: in vivo, mice; conditions: Mus musculus, ip, read-out: MePh antg. ED50, i.p., mice, 2 hours before methylphenidate 60 mg/kg s.c.
Method: The experiments were made as described by Pedersen and Christensen (1972) Acta Pharmacol. et Toxicol. 31, 488-496.--Briefly, test compounds or saline were injected i.p. 2 hours before methylphenidate, 60 mg/kg s.c. 3 pairs of mice were used for each dose level. After methylphenidate injection the mice were placed in observation cages for one hour. The cages were placed on corrugated paper, the corrugation facing upwards.

[5] = tested on: Quipazine-induced head shakes; test: Quipazine-induced head shakes; type: in vivo; conditions: Rattus norvegicus, sc, rats, 2 hours before quipazine 5 mg/kg s.c.; read-out: Quipazine antg. (Q) ED50
Method: The rats were pretreated subcutaneously with test compound or saline 2 hours before injection of quipazine (5 mg/kg s.c.). The rats were then placed individually in perspex observation cages (12×25 cm), and in standard experiments the number of head shakes (involving the head and sometimes part of the body) were counted for 10 min., 30-40 min. after quipazine, where the effect was maximal. The number of head shakes in each dose group were expressed in percent of those induced in the control group, and ED50 values were calculated by log-probit analysis of results from at least 3 doses.
as §2

[6] = read-out: Antihypertensive eff. SHR, max eff. in % of 5 mg/kg ip, DAP, 5 mg/kg ip, diastolic pressure (DAP), max change within one hour
[7] = read-out: Antihypertensive eff. SHR, max eff. in % of 5 mg/kg ip, SAP, 5 mg/kg ip, systolic pressure (SAP), max change within one hour
[8] = read-out: Effects on pressor response of 5-HT, % eff. of 0.02 mg/kg, pithed rats, 0.02 mg/kg, jugular vein
[9] = 5 mg/kg ip, diastolic pressure (DAP), max change within one hour, read-out: Antihypertensive eff. SHR, max eff. in % of 5 mg/kg ip, DAP
[10] = 5 mg/kg ip, systolic pressure (SAP), max change within one hour, read-out: Antihypertensive eff. SHR, max eff. in % of 5 mg/kg ip, SAP
[11] = pithed rats, 0.02 mg/kg, jugular vein, read-out: Effects on pressor response of 5-HT, % eff. of 0.02 mg/kg
[12] = 5 mg/kg ip, diastolic pressure (DAP), max change within one hour
[13] = 5 mg/kg ip, systolic pressure (SAP), max change within one hour
[14] = read-out: Antihypertensive eff. SHR, ED10 DAP
[15] = read-out: Antihypertensive eff. SHR, ED10 SAP
[16] = pithed rats, 0.02 mg/kg, jugular vein

Structure (SMILES) | change in vivo at 5 mg/kg [1, 6] | change in vivo at 5 mg/kg [1, 7] | IC50 (5-HT2 receptors) | ED50 [2] | Phenylephr. antg./5-HT antg. (ratio) ([2]; pithed rats) | ED50 (5-HT pressor responses) | ED50 [4] | ED50 [5] | change in vivo at 5 mg/kg [1, 9] | change in vivo at 5 mg/kg [1, 10] | change in vivo at […] [2] | change in vivo at 0.02 mg/kg (5-HT pressor responses; [11]) | other results
CSc1ccc2c(c1)[C@H](N1CCN(CCN3CCOC3=O)CC1)C[C@H]2c1ccc(F)cc1 (relative stereo) [compound 10, Trans-1-[3-(4-fluorophenyl)-6-methylthioindan-1-yl]-4-[2-(2-oxazolidinon-3-yl)ethyl]piperazine] | -22% | -14% | 6.6 nM | 9.4 µmol/kg | 276 | 0.034 µmol/kg | > 76 µmol/kg |  |  |  |  |  | change in vivo at 0.02 mg/kg (5-HT pressor responses; [8]): -57%; ED50 [3]: 2.4 µmol/kg
O=C1NCCN1CCCN1CCN([C@@H]2C[C@@H](c3ccc(F)cc3)c3ccc(F)cc32)CC1 (relative stereo) [compound 14] | -19% | -12% | 6.3 nM | 2.68 µmol/kg | 86 | 0.031 µmol/kg | 56 µmol/kg |  |  |  |  |  | peripheral or central action [1]: mainly possess periferal action; change in vivo at 0.02 mg/kg (5-HT pressor responses; [8]): -68%; ED50 [3]: 2 µmol/kg
O=C1CCCN1CCN1CCN([C@@H]2C[C@@H](c3ccc(F)cc3)c3ccc(Cl)cc32)CC1 (relative stereo) [compound 21] |  |  |  |  |  |  | 11 µmol/kg | 0.079 µmol/kg | -14% | -11% | 3% | -83% | 
O=C1OCCN1CCN1CCN([C@@H]2C[C@@H](c3ccc(F)cc3)c3ccc(Cl)cc32)CC1 (relative stereo) [compound 22] |  |  |  |  |  |  | 2.8 µmol/kg | 0.12 µmol/kg | -21% | -17% | -5% | -77% | 
Fc1ccc([C@@H]2C[C@@H](N3CCN(CCN4CCNC4=S)CC3)c3cc(F)ccc32)cc1 (relative stereo) [compound 24, Trans-1-[3-(4-fluorophenyl)-6-fluoroindan-1-yl]-4-[2-(2-imidazolidinthion-1-yl)ethyl]piperazine] | -20% | -10% | 5.2 nM | 3.7 µmol/kg | 370 | 0.01 µmol/kg | 25 µmol/kg |  |  |  |  |  | change in vivo at 0.02 mg/kg (5-HT pressor responses; [8]): -88%; ED50 [3]: 0.13 µmol/kg
Fc1ccc([C@@H]2C[C@@H](N3CCN(CCN4CCNC4=S)CC3)c3cc(Cl)ccc32)cc1 (relative stereo) [compound 28] |  |  |  |  |  |  | 4.5 µmol/kg | 0.017 µmol/kg | -10% | -6% | -22% | -93% | 
Fc1ccc([C@@H]2C[C@@H](N3CCN(CCN4CCCC4=S)CC3)c3cc(Cl)ccc32)cc1 (relative stereo) [compound 29, (±)Trans-1-[3-(4-fluorophenyl)-6-chlorindan-1-yl]-4-[2-(2-pyrrolidinthion-1-yl)ethyl]piperazine] |  |  |  |  |  |  |  | < 0.17 µmol/kg | -4% | -5% | 8% | -88% | 
O=C1NCCN1CCN1CCN([C@@H]2C[C@@H](c3ccc(F)cc3)c3ccccc32)CC1 (single isomer, unassigned) [+1, (+)trans-1-[3-(4-fluorophenyl]indan-1-yl]-4-[2-(2-imidazolidinon-1-yl)ethyl]piperazine] |  |  | 6 nM | 3.21 µmol/kg | 357 | 0.009 µmol/kg | > 97 µmol/kg |  |  |  |  |  | Antihypertensive eff. SHR, max eff. in % of 5 mg/kg ip, DAP [1, 12]: -47%; Antihypertensive eff. SHR, max eff. in % of 5 mg/kg ip, SAP [1, 13]: -33%; ED10 [1, 14]: 1.2 µmol/kg; ED10 [1, 15]: 1.7 µmol/kg; peripheral or central action [1]: mainly possess periferal action; Effects on pressor response of 5-HT, % eff. of 0.02 mg/kg (5-HT pressor responses; [16]): -81%; 1-5-HTP-antg. ED50 [3]: 1.5 µmol/kg
O=C1NCCN1CCN1CCN([C@@H]2C[C@@H](c3ccc(F)cc3)c3ccc(F)cc32)CC1 (single isomer, unassigned) [+2, (+)Trans-1-[3-(4-fluorophenyl)-6-fluoroindan-1-yl]-4-[2-(2-imidazolidinon-1-yl)ethyl]piperazine] |  |  | 4.3 nM | 1.43 µmol/kg | 143 |  | > 61 µmol/kg |  |  |  |  |  | Antihypertensive eff. SHR, max eff. in % of 5 mg/kg ip, DAP [1, 12]: -40%; Antihypertensive eff. SHR, max eff. in % of 5 mg/kg ip, SAP [1, 13]: -31%; ED10 [1, 14]: 0.8 µmol/kg; ED10 [1, 15]: 1.6 µmol/kg; Effects on pressor response of 5-HT, ED50 (5-HT pressor responses; pithed rats, jugular vein): 0.010 µmol/kg; 1-5-HTP-antg. ED50 [3]: 0.10 µmol/kg
CN1CCN(CCN2CCN([C@@H]3C[C@@H](c4ccc(F)cc4)c4ccc(F)cc43)CC2)C1=O (single isomer, unassigned) [+3, (+)Trans-1-[3-(4-fluorophenyl)-6-fluoroindan-1-yl]-4-[2-(3-methyl-2-imidazolidinon-1-yl)ethyl]piperazine] | -52% | -38% | 1.1 nM | 2.25 µmol/kg | 563 | 0.004 µmol/kg | > 91 µmol/kg |  |  |  |  |  | Effects on pressor response of 5-HT, % eff. of 0.02 mg/kg (5-HT pressor responses; [16]): -89%; 1-5-HTP-antg. ED50 [3]: 0.023 µmol/kg
O=C1NCCN1CCN1CCN([C@@H]2C[C@@H](c3ccc(F)cc3)c3ccc(Cl)cc32)CC1 (single isomer, unassigned) [+20, Trans-1-[3-(4-fluorophenyl)-6-chloroindan-1-yl]-4-[2-(2-imidazolidinon-1-yl)ethyl]piperazine, L(+)tartrate] |  |  |  |  |  |  | 49 µmol/kg | 0.028 µmol/kg |  |  |  |  | Antihypertensive eff. SHR, max eff. in % of 5 mg/kg ip, DAP [1, 12]: -45%; Antihypertensive eff. SHR, max eff. in % of 5 mg/kg ip, SAP [1, 13]: -29%; Effects on pressor response of Phenylephrine, % eff. of […] ([2]; pithed rats, […], jugular vein): -34%; Effects on pressor response of 5-HT, % eff. of 0.02 mg/kg (5-HT pressor responses; [16]): -92%

Source: patent publication US4684650A, “Antihypertensive fluorophenylindanyl imidazolidinoneethylpiperazines” (priority 1984, dated 1987)
